Test results published in patent US10675286B2, “Heterocyclic compounds and uses thereof” (Infinity Pharmaceuticals, Inc., priority 2014, dated 2020).
Read-outs that look alike come from different tables or passages of the source.

Tests used:
4T1 mammary carcinoma = assay: 4T1 breast cancer model (orthotopic / subcutaneous), tumor growth and IHC; format: in vivo, mouse
Method: Plasma is collected for pharmokinetic (PK) analysis.
Luciferin measurements were taken twice a week.
Immunohistochemistry was performed to determine the distribution of immune cells within the tumor. In particular, CD11b myeloid cells were examined, as were regulatory vs. effector T cells (CD3, CD4, CD8, FoxP3).

LLC tumor brei [1] = assay: LLC tumor brei model, immune cells in tumors; format: in vivo
GL261-Luc = GL261-Luc murine glioblastoma subcutaneous model; format: in vivo, mouse; settings: GL-261 syngeneic glioma, 15 mg/kg QD, PO
Source text: In some cases, the GL261 glioblastoma model is used. This is a syngeneic glioblastoma multiform model run subcutaneously or orthotopically, and is described in more detail in the examples provided herein. In some embodiments, the model has previously been treated with radiation therapy but there is a recurrence of the cancer. Compounds provided herein can be administered to models with a recurrence or relapse of cancer after prior treatment.

MC38 tumor cells = assay: MC38 colon cancer model; format: in vivo, mouse
Method: In this model, a syngeneic colon cancer cell line is run subcutaneously. The experimental setup was as follows.
The cell injection volume was 0.05 ml per mouse. When tumors reached an average size of 80-100 mm^3, a pair match was made and treatment began. The tumor was measured by caliper biweekly.
The dosing volume was 5 mL/kg.
For all animals, blood was collected by terminal cardiac puncture under isoflurane anesthesia. The blood was processed for plasma. In addition, tumor samples were collected.
At study end, tumors were isolated, fixed in 10% neutral buffered formalin and embedded in paraffin for histologic analysis. […] T-cells within the tumor sections were identified utilizing a CD3-specific antibody via automated immunohistochemistry equipment (Ventana). Once stained, slides were digitalized via Aperio slide scanning equipment. Next, stained tumor sections were quantified via Definians software to assess the percentage of CD3 positive cells within each tumor.

[2] = system: Myeloid Derived Suppressor Cell; assay: Myeloid Derived Suppressor Cell differentiation assay; format: cell-based
[3] = system: CXCL12-induced pAKT in T-cells; assay: CXCL12-induced pAKT in T-cells of CLL patient PBMCs; format: cell-based, human
Source text: There was a tight correlation between the EC50s observed in the CXCL12-induced pAKT assay and the T-cell migration assay.

[4] = system: CXCL12 induced p-AKT in bone marrow derived macrophages; assay: CXCL12-induced p-AKT induction assay in differentiated, polarized macrophages; format: cell-based, mouse; settings: Mus musculus, Macrophage
Source text: Long bones from young C57B6 mice were harvested and bone marrow was extruded by gentle lavage of the bone marrow cavities with a 28 gauge needle. Red blood cells were removed using red blood cell lysis buffer (Sigma). Bone marrow cells were differentiated to macrophages using MCSF for 6 days (RPMI and 20% FCS) with one media change (with removal of all non-adherent cells) at day 3. Macrophages were polarized into M0 (MCSF), M1 (MCSF, IFNγ, and LPS for 1 day), or M2 (MCSF, IL4 for 2 days).
Polarized macrophages were lifted with Acutase, and plated at 0.5M cells per well (0.5 ml) in a deep well (2 ml) non adherant plate in polarization media for 1 hour. […] CXCL12 was added, and the cells were mixed on a plate shaker for 2 minutes. 1 ml of 37 degree FACS Lyse/fix buffer (BD bioscience) was added and the plate was mixed for 1 minute. The plates were spun and decanted and frozen at −80° C. Phospho AKT staining with anti Phospho AKT 473 PERCP labeled (Cell Signaling Technologies) was performed and measured by flow cytometry. Total cell MFI was used to calculate the effect of tested compound on CXCL12 induction of phospho AKT.

[5] = system: IL-8 induced neutrophil migration; assay: IL-8 driven murine air pouch model; format: in vivo; settings: mouse; Compound BB 0.1, 0.3, 1, 3 mg/kg; Compound AA 10, 25, about 50 mg/kg; vs vehicle
Source text: IL-8 chemoattracts and activates neutrophils.

[6] = system: CXCL12-induced T cell migration; assay: CXCL12-induced T-cell migration in CLL PBMCs (transwell); format: cell-based; settings: Homo sapiens
Method: Specifically, the material used were media (RPMI+0.5% Fetal Bovine Serum+Pen/Strep), total CLL PBMCs (AllCells), CoStar 24-transwell plates ([…]) #3421, BD Cytofix Fixation Buffer (#554655), BD FBS Stain Buffer (BD Biosciences, 554656), Deep 96-well plate (Axygen, P-2ML-SQ-C), rhCXCL12 (R&D, 350-NS-050), CD-19 APC Cy7 (BD #348794 1:20), CD3-PerCPCy5.5 (BD #560835, 1:20), CD5-PE (Biolegend #300608, 1:5), CD4-FITC (BD #561842, 1:20), and CD8-APC (BD #561953, 1:20).
Total CLL human PBMCs were preincubated with Compound AA or BB in media for 45 minutes at 37° C. […] After the 45 minutes of compound preincubation, 500-750K CLL PBMCs were placed in the upper chamber of the transwell insert in a total volume of 100 uL. The cells were allowed to migrate for 2-4 hours at 37° C. The inserts were removed, and 550 uL media from lower chamber were transferred into a deep 96-well plate. The cells were spun at 1280 rpm for 5 minutes and flick media. The cells were resuspended in 400 uL BD Cytofixation buffer and incubated at RT for 10 minutes. 1 mL BD FBS stain buffer was added. The cells were spun at 1280 rpm and fixation buffer was disposed. The cells were resuspended in 100 uL of CD3,4,8,5,19 antibody cocktail made up in BD FBS stain buffer, which was then incubated at room temperature in the dark for 30-60 minutes. 1 mL BD FBS stain buffer was added to each well, which was then spun and flicked. The cells were resuspended in 150 uL FBS stain buffer and transferred to FACS tubes already containing 150 uL FBS stain buffer. Each sample was read on the FACS for 25 seconds. Gate on CD3, 4, 8 and CD19/5 subpopulations individually and calculate average migration index from triplicate samples. See e.g., Borge et al., haematologica 2010, 95(5): 768-775; de Rooij et al., Blood 2012, 119: 2590-2594.

[7] = Oral pharmacokinetics of Compound BB in rat; format: in vivo; settings: 7.5 mg/kg oral
Source text: Compound BB's oral exposure is high in rat, dog and monkey. Good oral bioavailability and low clearance in rodent and non-rodent animal species results in high oral exposure.

LLC tumor brei [8] = assay: LLC tumor brei model, Compound BB with or without cyclophosphamide; format: in vivo, mouse
Method: In this experiment, treatment began when tumors reached approx. 150 mm^3—around day 12. Caliper and xenogen images were monitored. Treatment groups n=13-15/group. […] Samples for FACs analysis were collected on day 23 post implant. Using FACS, cells were assayed for the level of CD11b and Gr-1.

[9] = In vitro toxicology studies
[10] = Pharmacokinetics in rodent and non-rodent animal species (ADME characteristics, Table 25)
Source text: These properties indicate the compound's suitability for in vivo administration.

[11] = system: bone marrow cells differentiating into MDSCs; assay: Myeloid Derived Suppressor Cell differentiation assay (VEGF, ARG1); format: cell-based
Method: A similar experiment was performed on bone marrow cells differentiating into MDSCs.

[12] = orthotopic 4T1, 7.5 mg/kg PO once daily 3 weeks

C[C@H](NC(=O)c1c(N)nn2cccnc12)c1cc2cccc(C#Cc3cnn(C)c3)c2c(=O)n1-c1ccccc1 [Compound BB]
Tumor growth (FIG. 35) (4T1 mammary carcinoma; 4T1, Compound BB alone 15 mg/kg once daily 2 weeks): achieved a reduction in tumor growth | CD11b+ myeloid cell staining in viable tumor regions (IHC, FIG. 37A) (4T1 mammary carcinoma; 4T1 tumors, day 13, vs vehicle): decrease in CD11b+ myeloid cell staining | Total luciferase flux (FIG. 33B) (4T1 mammary carcinoma; [12]): reduced total luciferase flux | Tumor growth (FIG. 33A) (4T1 mammary carcinoma; [12]): reduced tumor growth | Time the anti-tumor effect was maintained after discontinuation of treatment (4T1 mammary carcinoma; subcutaneous 4T1): at least 6 days | Tumor growth (FIG. 34, FIG. 36) (4T1 mammary carcinoma; subcutaneous 4T1, single agent): demonstrated single agent activity | CD206+ M2 polarized suppressive macrophages (LLC tumor brei [1]): reduces | TAMs in tumor (LLC tumor brei [1]): decreased | Total flux (FIG. 47B) (GL261-Luc): reduced the total flux | Tumor volume (FIG. 47A) (GL261-Luc): reduced tumor volume | Tumor growth (FIG. 29A) (MC38 tumor cells; MC38, monotherapy): significantly inhibited tumor growth | Intratumoral CD3+ T cells (FIG. 30) (MC38 tumor cells; MC38 tumors, vs vehicle): significantly more intratumoral CD3+ T cells | ARG1 [2]: suppresses | VEGF [2]: suppresses | Inhibition of CXCL12-induced pAKT in T-cells (FIG. 9) [3]: more strongly than a PI3K-δ inhibitor | IC50 ([4]; read-out: IC50, CXCL12 induced p-AKT, differentiated and M1 polarized macrophage): ~14 nM | IC50 ([4]; read-out: IC50, CXCL12 induced p-AKT, differentiated and M2 polarized macrophage): ~8.4 nM | IL-8 induced neutrophil migration into air pouch [5]: blocks IL-8 induced neutrophil migration | EC50 ([6]; T-cell subset CD3+, read-out: EC50 (nM), CXCL12 induced T-cell migration): 17 ± 17 nM | EC50 ([6]; T-cell subset CD4+, read-out: EC50 (nM), CXCL12 induced T-cell migration): 20 ± 21 nM | EC50 ([6]; T-cell subset CD8+, read-out: EC50 (nM), CXCL12 induced T-cell migration): 13 ± 15 nM | EC50 ([6]; read-out: EC50, inhibition of CXCL12-induced CD3+ T cell migration (FIG. 8)): 10 nM | Oral exposure (plasma concentrations within 24 hours, FIG. 43) [7]: high | Tumor growth (FIG. 48) (LLC tumor brei [8]; Compound BB 15 mg/kg QD PO, cyclophosphamide 50 mg/kg EOD IP): reduced tumor growth by about the same amount | CD206 population in tumor (FACS, FIG. 52) (LLC tumor brei [8]; Compound BB alone or with cyclophosphamide): decrease in the CD206 population | In vitro toxicology [9]: expected to have very low toxicity | Clearance and half-life in vivo [10]: low clearance and a long half-life in vivo | VEGF and ARG1 in MDSC differentiation assay (FIG. 24) [11]: suppressed both VEGF (FIG. 24A) and ARG1 (FIG. 24B)
